Reference: ChEMBL document CHEMBL4706477, “Synthesis and Biological Evaluation of Calothrixins B and their Deoxygenated Analogues” (J Med Chem, 2018)
The source made the active and inactive calls. No cut-off for these calls is given here.

Key:
[1] = target: T1, DNA topoisomerase 2-alpha (Homo sapiens, UniProt P11388); assay: Inhibition of recombinant human topoisomerase 2 assessed as decrease in relaxation of supercoiled pBlue-Script KS(+) plasmid DNA at 40 uM incubated for 30 mins by ethidium bromide staining based gel electrophoresis method relative to control
T1 sequence (P11388 whole entry): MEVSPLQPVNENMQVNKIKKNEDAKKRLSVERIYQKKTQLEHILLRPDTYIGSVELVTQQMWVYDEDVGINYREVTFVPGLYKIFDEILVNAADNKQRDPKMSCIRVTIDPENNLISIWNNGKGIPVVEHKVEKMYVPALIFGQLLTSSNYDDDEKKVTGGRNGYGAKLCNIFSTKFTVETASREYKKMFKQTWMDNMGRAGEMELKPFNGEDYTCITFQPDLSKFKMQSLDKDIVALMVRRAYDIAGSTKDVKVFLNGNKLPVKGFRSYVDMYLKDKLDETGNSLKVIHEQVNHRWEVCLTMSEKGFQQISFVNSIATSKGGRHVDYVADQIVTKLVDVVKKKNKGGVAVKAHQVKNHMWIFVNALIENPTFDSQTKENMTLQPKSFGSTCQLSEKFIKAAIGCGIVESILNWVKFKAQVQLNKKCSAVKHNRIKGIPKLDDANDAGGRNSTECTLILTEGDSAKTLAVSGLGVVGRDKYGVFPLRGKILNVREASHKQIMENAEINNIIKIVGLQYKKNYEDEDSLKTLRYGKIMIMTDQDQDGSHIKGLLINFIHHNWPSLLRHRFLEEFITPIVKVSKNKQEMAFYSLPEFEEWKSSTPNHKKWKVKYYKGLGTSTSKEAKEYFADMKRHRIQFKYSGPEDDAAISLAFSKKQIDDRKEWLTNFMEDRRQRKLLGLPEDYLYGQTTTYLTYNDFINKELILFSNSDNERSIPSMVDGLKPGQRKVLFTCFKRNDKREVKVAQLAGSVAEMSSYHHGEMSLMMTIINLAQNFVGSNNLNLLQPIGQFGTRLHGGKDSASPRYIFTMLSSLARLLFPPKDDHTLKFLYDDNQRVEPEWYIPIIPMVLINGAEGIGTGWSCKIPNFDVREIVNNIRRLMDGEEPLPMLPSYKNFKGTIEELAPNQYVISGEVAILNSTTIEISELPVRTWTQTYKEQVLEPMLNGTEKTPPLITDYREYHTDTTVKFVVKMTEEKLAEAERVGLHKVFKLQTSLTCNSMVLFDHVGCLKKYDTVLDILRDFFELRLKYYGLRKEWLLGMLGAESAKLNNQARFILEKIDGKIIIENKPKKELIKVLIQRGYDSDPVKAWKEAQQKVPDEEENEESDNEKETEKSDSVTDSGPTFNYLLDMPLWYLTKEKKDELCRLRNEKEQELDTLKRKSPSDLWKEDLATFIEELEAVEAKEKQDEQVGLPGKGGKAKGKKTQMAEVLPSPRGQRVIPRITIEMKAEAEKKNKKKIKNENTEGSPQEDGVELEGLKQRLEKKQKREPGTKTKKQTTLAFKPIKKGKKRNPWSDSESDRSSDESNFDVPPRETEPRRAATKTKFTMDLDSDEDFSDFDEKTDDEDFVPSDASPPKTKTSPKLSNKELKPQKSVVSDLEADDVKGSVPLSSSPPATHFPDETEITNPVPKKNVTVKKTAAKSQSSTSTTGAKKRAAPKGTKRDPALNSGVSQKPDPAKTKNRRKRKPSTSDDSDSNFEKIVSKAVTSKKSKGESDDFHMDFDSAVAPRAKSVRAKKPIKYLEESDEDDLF

HEK293 = assay: Antiproliferative activity against human HEK293 cells assessed as reduction in cell viability incubated for 48 hrs by sulphorhodamine B assay; format: functional
A549 = assay: Antiproliferative activity against human A549 cells assessed as reduction in cell viability incubated for 48 hrs by sulphorhodamine B assay; format: functional
HCT-116 [2] = assay: Anticlonogenic activity against human HCT-116 cells assessed as inhibition of colony formation at 5 uM incubated for 48 hrs followed by compound washout with PBS and measured after 14 days by crystal violet staining based analysis; format: functional, cell-based
NCI-H460 [3] = assay: Anticlonogenic activity against human NCI-H460 cells assessed as inhibition of colony formation at 5 uM incubated for 48 hrs followed by compound washout with PBS and measured after 14 days by crystal violet staining based analysis; format: functional, cell-based
HCT-116 [4] = assay: Induction of cell cycle arrest in human HCT-116 cells at 5 uM incubated for 20 hrs by propidium iodide staining based flow cytometry analysis; format: functional
HCT-116 [5] = assay: Induction of cell cycle arrest in human HCT-116 cells assessed as accumulation of cells at G2/M phase at 5 uM incubated for 48 hrs by propidium iodide staining based flow cytometry analysis; format: functional
[6] = target: T1, DNA topoisomerase 2-alpha; assay: Inhibition of recombinant human topoisomerase 2 assessed as decrease in relaxation of supercoiled pBlue-Script KS(+) plasmid DNA at 200 uM incubated for 30 mins by ethidium bromide staining based gel electrophoresis method
[7] = target: T1, DNA topoisomerase 2-alpha; assay: Inhibition of recombinant human topoisomerase 2 assessed as decrease in relaxation of supercoiled pBlue-Script KS(+) plasmid DNA incubated for 30 mins by ethidium bromide staining based gel electrophoresis method
[8] = target: T1, DNA topoisomerase 2-alpha; assay: Inhibition of human topoisomerase 2 assessed as inhibition of etoposide-induced DNA cleavage complex formation by measuring linear DNA formation at 30 to 50 uM incubated for 30 mins using pRYG DNA as substrate by agarose gel electrophoresis analysis; details: dose 30-50 µM
HCT-116 [9] = assay: Induction of DNA damage in human HCT-116 cells assessed as tail length at 5 uM incubated for 48 hrs by alkaline Comet assay relative to control; format: functional, cell-based
NCI-H460 [10] = assay: Induction of DNA damage in human NCI-H460 cells at 5 uM incubated for 48 hrs by alkaline Comet assay relative to control; format: functional, cell-based
Calf thymus DNA [11] = assay: Binding affinity to calf thymus DNA assessed as hyperchromic effect measured at 299 nm at 3*10^-5 mol/L by double beam UV-Vis spectroscopic analysis; format: nucleic-acid assay; details: Bos taurus
Calf thymus DNA [12] = assay: Binding affinity to calf thymus DNA assessed as DNA intercalation by measuring positive CD band at 20*10^-6 mol/L by CD spectroscopy; format: nucleic-acid assay; details: Bos taurus
Calf thymus DNA [13] = assay: Binding affinity to calf thymus DNA assessed as DNA intercalation by measuring positive CD band at 26.6*10^-6 mol/L by CD spectroscopy; format: nucleic-acid assay; details: Bos taurus
[14] = target: T2, DNA topoisomerase 1 (Homo sapiens) (UniProt P11387); assay: Inhibition of human topoisomerase 1 assessed as induction of negative supercoiled DNA using relaxed pBlue-Script KS(+) plasmid DNA as substrate measured after 15 mins by agarose gel electrophoresis analysis; details: dose 60-100 µM
T2 sequence (whole entry): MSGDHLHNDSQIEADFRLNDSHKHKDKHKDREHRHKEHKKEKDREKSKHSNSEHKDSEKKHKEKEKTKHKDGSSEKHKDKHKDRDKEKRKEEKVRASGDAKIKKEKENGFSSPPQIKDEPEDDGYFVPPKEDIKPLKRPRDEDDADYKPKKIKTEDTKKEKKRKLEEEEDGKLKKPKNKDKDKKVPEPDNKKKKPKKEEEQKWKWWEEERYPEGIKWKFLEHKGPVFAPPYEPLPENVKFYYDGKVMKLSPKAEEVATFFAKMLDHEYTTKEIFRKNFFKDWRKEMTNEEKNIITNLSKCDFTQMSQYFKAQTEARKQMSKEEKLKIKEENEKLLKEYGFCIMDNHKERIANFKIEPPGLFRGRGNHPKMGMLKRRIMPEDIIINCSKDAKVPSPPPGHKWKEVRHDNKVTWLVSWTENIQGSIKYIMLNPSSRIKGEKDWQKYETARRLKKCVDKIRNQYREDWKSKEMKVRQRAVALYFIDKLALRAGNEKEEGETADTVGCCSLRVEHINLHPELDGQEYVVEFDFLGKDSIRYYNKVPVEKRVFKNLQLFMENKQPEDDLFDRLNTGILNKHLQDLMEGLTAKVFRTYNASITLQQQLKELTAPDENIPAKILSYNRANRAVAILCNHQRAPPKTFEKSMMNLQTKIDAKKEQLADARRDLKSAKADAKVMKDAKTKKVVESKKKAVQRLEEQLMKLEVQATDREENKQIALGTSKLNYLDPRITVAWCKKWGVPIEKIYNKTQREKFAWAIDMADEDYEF

Jurkat = assay: cells; details: Homo sapiens, 48 h
Description: Antiproliferative activity against human Jurkat cells assessed as reduction in cell viability incubated for 48 hrs by sulphorhodamine B assay

HeLa = assay: cells; details: Homo sapiens, 48 h
Description: Antiproliferative activity against human HeLa cells assessed as reduction in cell viability incubated for 48 hrs by sulphorhodamine B assay

SiHa = assay: cells; details: Homo sapiens, 48 h
Description: Antiproliferative activity against human SiHa cells assessed as reduction in cell viability incubated for 48 hrs by sulphorhodamine B assay

MCF7 = assay: cells; details: Homo sapiens, MCF7, 48 h
Description: Antiproliferative activity against human MCF7 cells assessed as reduction in cell viability incubated for 48 hrs by sulphorhodamine B assay

HCT-116 [15] = assay: cells; details: Homo sapiens, HCT-116, 48 h
Description: Antiproliferative activity against human HCT-116 cells assessed as reduction in cell viability incubated for 48 hrs by sulphorhodamine B assay

U-251 = assay: cells; details: Homo sapiens, U-251, 48 h
Description: Antiproliferative activity against human U-251 cells assessed as reduction in cell viability incubated for 48 hrs by sulphorhodamine B assay

NCI-H460 [16] = assay: cells; details: Homo sapiens, NCI-H460, 48 h
Description: Antiproliferative activity against human NCI-H460 cells assessed as reduction in cell viability incubated for 48 hrs by sulphorhodamine B assay

MDA-MB-231 = assay: cells; details: Homo sapiens, MDA-MB-231, 48 h
Description: Antiproliferative activity against human MDA-MB-231 cells assessed as reduction in cell viability incubated for 48 hrs by sulphorhodamine B assay

physchem [17] = details: octanol/water
Description: Octanol/water partition coefficient, log P of the compound

physchem [18] = details: octanol/buffer, pH 7.4
Description: Octanol/buffer distribution coefficient, log D of the compound at pH 7.4

- inhibition [1]: 97%
- GI50 (A549): > 4 µM
- inhibition [6]: 100%
- IC50 [7]: 23.4 µM
- IC90 [7]: 41.5 µM
- inhibition [7]: Dose-dependent effect
- inhibition [8]: Active
- Activity (Calf thymus DNA [11]): 30%
- Activity (Calf thymus DNA [12]): Active
- Activity (Calf thymus DNA [13]): Active
- Activity [14]: Dose-dependent effect
- GI50 (Jurkat): 4 µM
- GI50 (HeLa): 410 nM
- GI50 (MCF7): > 4 µM
- GI50 (HCT-116 [15]): 11.5 µM
- GI50 (U-251): > 4 µM
- GI50 (NCI-H460 [16]): 5.5 µM
- GI50 (MDA-MB-231): > 4 µM
- logP (physchem [17]): -1.25
- logD (physchem [18]): -1.55
SMILES: c1ccc2c(c1)ncc1cc3c(cc12)[nH]c1ccccc13
- GI50 (HEK293): > 4 µM
- inhibition (HCT-116 [2]): inactive
- inhibition (NCI-H460 [3]): inactive
- Activity (HCT-116 [4]): inactive
- Activity (HCT-116 [5]): inactive
- Activity (HCT-116 [9]): inactive
- Activity (NCI-H460 [10]): inactive
- GI50 (SiHa): > 4 µM
